Active and inactive are the calls of the source. The rule behind the calls is not given here. A value given as a limit tells only on which side of the number the result lay.

In PubChem BioAssay AID449750 (Broad Institute, 2010) one finds AC50 data, which are given here for 93 compounds.

A short description of this test: non-covalent RecA intein splicing inhibitors, dose response, biochemical, cell-free, fluorescence, secondary screen (AID 449750).
As a reminder, the AC50 is the midpoint of the concentration-response curve, whichever way the signal moves. `Cc1ccc(-c2nc(CN3CCCC(C(=O)N4CCOCC4)C3)c(C)o2)cc1` (stereo not drawn): the AC50 was > 38 µM (inactive). `O=S(=O)(Nc1ccc(-n2cnnn2)cc1)c1ccc(F)c(F)c1F`: the AC50 is > 38 µM (inactive).

As to `COc1ccc(-c2c(=O)n(OC)c3ccccc3[n+]2[O-])cc1OC`, the AC50 was > 38 µM (inactive).

In the case of `O=c1cc(N=Nc2ccc(Cl)cc2)[nH]c(=O)[nH]1`, the AC50 was > 38 µM (inactive). For the compound `Cc1cnnn1-c1ccc(C(=O)CCl)cc1`, the AC50 was > 38 µM (inactive). As for `O=c1c(Cl)c(Cl)cnn1Cc1ccc(F)cc1`, the figure is 35.3 µM. With `COc1cc(OC)cc(-c2nnc(Sc3ccc(C=O)cc3[N+](=O)[O-])o2)c1` the figure was 21.3 µM; with `CC(C)NC(=S)NC1(C)CCS(=O)(=O)C1` (stereo not drawn), > 38 µM (inactive); with `COC(=O)c1sc(N)c(C(=O)OC)c1Cn1ncc(Cl)c(Cl)c1=O`, > 38 µM (inactive). As for `N#Cc1c(N2CCCCC2)nc(N)c2c(N)nc(SCC(=O)O)cc12`, the figure is > 38 µM (inactive).

As to `Cc1ccsc1/C=N/NC(=O)Cc1cc(=O)[nH][nH]1`, the AC50 was 5.95 µM. As for `O=C1c2cc([N+](=O)[O-])ccc2-c2ncccc21`, the figure is > 38 µM (inactive); as for `COC1(OC)C(/C=C/c2ccc(C)cc2)C(C#N)(C#N)C1(OC)OC` (stereo not drawn), > 38 µM (inactive); as for `O=c1[nH]cc(NCCc2ccccc2)c(=O)[nH]1`, > 38 µM (inactive). With `O=C(Nc1ccccc1)Nc1ccc(O)c2ccccc12` the figure was 14.4 µM.

As to `CC1=NNC(=O)C1C(c1ccccc1)C(C#N)C#N` (stereo not drawn), the AC50 was > 38 µM (inactive). With `CC1=NN(Cc2ccccc2)C(=O)C1C(c1ccc(Cl)cc1)C(C#N)C#N` (stereo not drawn) the figure was 31 µM. With `CCOC(=O)CSc1nc2sc3c(c2c(=O)n1C1CCCCC1)CCN(C)C3` the figure was > 38 µM (inactive). As for `Nn1cnnc1N/N=C/c1ccc(Cl)c([N+](=O)[O-])c1`, the figure is > 38 µM (inactive); as for `O=c1[nH]c(Nc2ccccc2)cc2ccccc12`, 1.68 µM. Take `O=C1CS/C(=C\[N+](=O)[O-])N1c1ccc(OC(F)(F)F)cc1`: the AC50 is > 38 µM (inactive).

In the case of `COC(=O)c1ccc(-n2c(C)cc(C(=O)CCl)c2C)cc1`, the AC50 was 17.8 µM. Turning to `Cc1ccc(C(=O)N/N=C\c2cc(Br)c(Br)o2)cn1`, the half-maximal activity concentration (AC50) was 15.7 µM. With `Cc1onc(-c2ccccc2)c1-c1nc2cc(Cl)ccc2c(=O)o1` the figure was > 38 µM (inactive); with `CSc1nnc(NC(=O)c2nc(S(=O)(=O)Cc3ccc(C)cc3)ncc2Cl)s1`, > 38 µM (inactive); with `COc1ccc(OCc2cc(C(=O)NC3CCOC(C)(C)C3)no2)c2ccccc12` (stereo not drawn), 26 µM. With `CCCc1nn(C)c2c1C(c1ccncc1)C(C#N)=C(N)O2` (stereo not drawn) the figure was > 38 µM (inactive); with `CCOC(=O)C(CC)Sc1ncnc2c1nnn2-c1ccc(F)cc1` (stereo not drawn), > 38 µM (inactive). As for `CCC(=O)N/N=C(\C)CC(=O)Nc1cccc([N+](=O)[O-])c1`, the figure is > 38 µM (inactive); as for `CCOC(=O)C1=C(c2ccccc2)NC(N)=NC1c1ccc(OCc2ccc(Cl)cc2)c(OC)c1` (stereo not drawn), 10.2 µM; as for `Cc1ccc(Sc2ncnc3onc(C)c23)cc1`, > 38 µM (inactive). With `Cc1cc(C)cc(OC(=O)CS(=O)c2ccc(C(F)(F)F)cc2[N+](=O)[O-])c1` (stereo not drawn), the AC50 is > 38 µM (inactive). On to `COc1cc(/C=N/NC(=O)CC2(C)OCCCO2)ccc1OCc1ccccc1`, for which the AC50 is > 38 µM (inactive). Turning to `COc1ccc(C2=NN(C(=O)/C=C/c3ccccc3)C(c3ccccc3)C2)c(OC(C)=O)c1` (stereo not drawn), the AC50 is 2.24 µM. For `CCCc1[nH]nc2c1C(c1ccc(OC(=O)N3CCOCC3)cc1)C(C#N)=C(N)O2` (stereo not drawn), the AC50 was > 38 µM (inactive). With `COc1ccc(C2NC(c3ccc(OC)cc3OC)C(C)C(=O)C2C)c(OC)c1` (stereo not drawn) the figure was > 38 µM (inactive). Take `CCCCCCCN(C(=O)CCl)c1ccccc1C`: the AC50 is 1.89 µM. On to `N[C@@H]1CCCC[C@H]1N.O=C(O)C(=O)O.[Pt]`, for which the AC50 is > 38 µM (inactive). As for `CCOC(=O)c1c(NC(=O)CSc2nnc(-c3c[nH]c4ccccc34)n2CCOC)sc2c1CCCC2`, the figure is > 38 µM (inactive); as for `Nc1cc2nn(-c3ccccc3)nc2cc1Cl`, 7.05 µM. As to `CCO/C=C1/C(=O)N(Cc2ccccc2)C(=O)c2ccccc21`, the AC50 is > 38 µM (inactive). Turning to `CC(C)(C)C(=O)Nc1ccc(N=Nc2ccccc2)cc1`, the AC50 is 7.69 µM. Regarding `O=C(CSC1=NCCS1)Nc1nc(-c2ccccc2)cs1`, the AC50 is 30.5 µM. For the compound `CCCc1c(-c2ccc(O)cc2)nn(-c2ccc(O)cc2)c1-c1ccc(O)cc1`, the AC50 is 4.37 µM.

As to `CSCCC1C(C#N)=C(N)Oc2n[nH]c(-c3cccs3)c21` (stereo not drawn), the AC50 is 11.4 µM. In the case of `O=C(CCCN1C(=O)/C(=C/c2ccccc2)SC1=S)Nc1ccc(O)cc1`, the AC50 is > 38 µM (inactive). As for `Cc1ccccc1NC(=O)C(=Cc1ccc(C(=O)O)cc1)C(=O)Nc1ccccc1C`, the AC50 is > 38 µM (inactive). As for `CNC(=O)/C(C#N)=C/c1c(N(Cc2ccccc2)Cc2ccccc2)nc2c(C)cccn2c1=O`, the figure is 13 µM.

As for `O=S(=O)(Nc1c(O)ccc2ccccc12)c1ccc(F)cc1`, the AC50 is 13.3 µM. `COC(=O)[C@@H]1[C@@H](C(=O)OC)C2(c3ccccc3-c3ccccc32)N(c2ccc(Cl)cc2)N1C#N`: the AC50 was 34.3 µM. With `O=C(Oc1ccc(N2C(=O)C3C4CCC(C4)C3C2=O)cc1)c1ccco1` (stereo not drawn) the figure was > 38 µM (inactive). As for `COc1cc(C2(c3ccc(O)c(OC)c3)C(=O)Nc3c(Br)cc(Br)cc32)ccc1O`, the figure is 21.5 µM. As for `COc1cc(C2C(C#N)=C(N)Oc3n[nH]c(C)c32)ccc1OC(=O)c1ccccc1` (stereo not drawn), the figure is > 38 µM (inactive); as for `O=C1/C(=C/c2cccc([N+](=O)[O-])c2)CCc2ccccc21`, 11.2 µM; as for `CCc1ccc(C2C(C#N)=C(N)C(C#N)(C#N)C3=CCC(C(C)(C)C)CC32)cc1` (stereo not drawn), > 38 µM (inactive).

As to `Cc1nn(Cc2ccccc2)c2c1C(c1cccnc1)C(C#N)=C(N)O2` (stereo not drawn), the AC50 was > 38 µM (inactive).

Take `O=C(CCl)NCc1c(Cl)cccc1-n1cccc1`: the AC50 was 7.58 µM. As for `COc1c(O)ccc2c1CN1CCc3cc4c(cc3C1C2)OCO4` (stereo not drawn), the figure is > 38 µM (inactive); as for `Nc1c(O)cccc1C(=O)O`, 27.2 µM.

As to `CCOc1ccc(C(c2c(C)[nH][nH]c2=O)c2c(C)[nH][nH]c2=O)cc1OC`, the concentration at half-maximal activity (AC50) was 6.7 µM.

`O=C1N=NC2=C1c1c3ccccc3c(O)n1CC2`: the AC50 is 3.03 µM. As for `O=C(O)CSc1cc(NS(=O)(=O)c2ccc(Br)cc2)c2ccccc2c1O`, the figure is 2.2 µM; as for `COc1ccc(C2C(O)C(c3c[nH]c4ccccc34)=NN2C(=O)CCl)cc1` (stereo not drawn), 1.22 µM; as for `Cc1cc(N/N=C/c2ccc(O)c(C)c2O)nc(-c2ccccc2O)n1`, > 38 µM (inactive). As to `Cc1nnc(NC(=O)c2nc(S(=O)(=O)Cc3ccccc3C)ncc2Cl)s1`, the AC50 was > 38 µM (inactive).

With `Cc1[nH]n(-c2ccccc2)c(=O)c1C(c1ccc(O)c([N+](=O)[O-])c1)c1c(C)[nH]n(-c2ccccc2)c1=O`, the AC50 is 2.77 µM.

Consider `CN(C(=O)c1cccc(COc2ccc(Cl)cc2Cl)c1)c1ccccc1`, for which the AC50 is > 38 µM (inactive). As for `Cc1ccc(C2C(C#N)=C(N)Oc3n[nH]c(-c4cccs4)c32)s1` (stereo not drawn), the figure is 3.32 µM; as for `CC1(S(=O)(=O)O)CC(=O)c2ccccc2C1=O` (stereo not drawn), 6.36 µM. As for `O=C1C(Cl)=C(N2CCOCC2)C(=O)N1c1cccc(C(F)(F)F)c1`, the figure is > 38 µM (inactive). As for `CN(C)CCSc1nnc2[nH]c3ccccc3c2n1`, the figure is > 38 µM (inactive); as for `Cc1c(Cl)cccc1NC(=O)CSCc1cc(=O)[nH][nH]1`, 33.3 µM; as for `CCN1CCN(c2c(Cl)cccc2NC(=O)c2ccc3c(c2)OCCO3)CC1`, > 38 µM (inactive). Regarding `CN(C1=C(NC(=O)c2ccc(Cl)cc2)C(=O)c2ccccc2C1=O)c1ccccc1`, the AC50 was 15 µM. In the case of `N#CC1=C(N)Oc2n[nH]c(-c3ccc(F)cc3)c2C1c1cccc(OC(=O)N2CCOCC2)c1` (stereo not drawn), the AC50 is 26.2 µM. For the compound `CCCc1nnc(NC(=O)c2nc(S(=O)(=O)Cc3ccc(C)cc3)ncc2Cl)s1`, the AC50 is 1.55 µM. For the compound `Cc1nn(Cc2ccccc2)c2c1C(c1ccncc1)C(C#N)=C(N)O2` (stereo not drawn), the AC50 is > 38 µM (inactive). With `COc1cc(/C=C2\C(=O)N(c3ccc(NC(C)=O)cc3)N=C2c2ccccc2)ccc1O` the figure was > 38 µM (inactive); with `CCN(CC)c1ccc2c(c1)CCCN2`, > 12 µM (inactive); with `Cc1[nH]n(-c2ccccc2)c(=O)c1C(c1ccccc1[N+](=O)[O-])C(C#N)C#N` (stereo not drawn), 9.48 µM. As for `CC1CCCC(NC(=O)NC(=O)CCl)C1C` (stereo not drawn), the figure is 29.3 µM; as for `Oc1[nH]c2ccc(Br)cc2c1N=NC(=S)N1CCOCC1`, > 38 µM (inactive); as for `CSc1nnc(NC(=O)c2nc(S(=O)(=O)Cc3ccccc3)ncc2Cl)s1`, > 38 µM (inactive). Take `COc1ccc(-c2csc(Nc3ccc(O)cc3)n2)cc1`: the AC50 is > 38 µM (inactive). With `CCCCCCCCCCn1c2c(c(=N)c3c1CCC3)CCC2`, the AC50 was > 38 µM (inactive). As for `CC(=O)Oc1ccc2ccccc2c1C(NC(=O)Cc1ccccc1)c1ccc(Cl)cc1` (stereo not drawn), the figure is 4.04 µM. For the compound `CC(C)c1ccc(S(=O)(=O)/N=C2\C=C(NS(=O)(=O)c3ccccc3)C(=O)c3ccccc32)cc1`, the AC50 is 6.05 µM. In the case of `O=C(NC1(O)C(=O)c2ccccc2C1=O)c1c(Cl)cccc1Cl`, the AC50 was 12.5 µM.

`O=[N+]([O-])c1ccc(Sc2cccc[n+]2[O-])c2nonc12`: the concentration at half-maximal activity (AC50) was 9.27 µM. Take `O=c1cc(-c2ccc(C3CCCCC3)cc2)[nH][nH]1`: the AC50 was 7.41 µM. Take `COC(=O)c1c(NC(=O)/C=C/C(=O)O)sc(C)c1-c1ccc(C(C)C)cc1`: the AC50 was 11.6 µM. With `Cc1ccc(NC(=O)C(CC(C)C)NC(N)=O)cc1` (stereo not drawn) the figure was > 38 µM (inactive).

As for `O=[N+]([O-])c1cccc(C=Nc2cccc3ccccc23)c1O`, the AC50 is > 38 µM (inactive).
